For assay [1], the system named is LDL. In words: Proportion of CAD patients attaining LDL goal (<100 mg/dl) on a statin dose; validation sets stratified by predicted probability. The following applies: for Proportion of patients achieving goal: validation set; for Chance of success (reaching goal) of any dose choice: this study.
The test system of assay [2] is LDL. Put plainly: Logistic regression models of attaining LDL goal: odds ratios for concurrent or prior drug doses. Type of assay: in vivo, patients. Particulars: for OR: odds of goal. The procedure: G. Covariates for the multivariate model—The following list includes the predictors one or more of which may be tested in the multivariate models. • 1. AGE: (expressed in units of 10 years) at time that the new statin prescription was released • 2. GENDER, E. G., MALE: 1=yes, 0=no • 3. BMI (kg/M^2): last value before release date • 4. HBA1C (hemoglobin Alc): last value before release date • 5. PLDL: preceding LDL level expressed in e.g. 10 mg/dl units • 6. Statins • a. PLOVA: prior daily dose of lovastatin expressed in e.g. 10 mg units • b. […] For additional drugs: • a. AMIODOSE: amiodarone dose in mg/day • b. CARBDOSE: carbemazepine dose in mg/day • c. PIOGDOSE: pioglitazone dose expressed as number of 15 mg doses per day • d. […] METFDOSE: metformin dose expressed as number of 1000 mg doses per day • f. PHENDOSE: phenyloin dose in mg/day • g. RISPDOSE: risperidone dose in mg/day • h. ROSIDOSE: rosiglitazone dose in mg/day • i.
Body mass index (BMI) was chosen as a covariate of statin response because obese patients tend to consume a diet high in cholesterol. It was hypothesized that they would respond less well to statins because their hypercholesterolemia was more likely to be mediated by dietary indiscretion than excessive LDL synthesis. […] Metformin and the thiazolidinediones were chosen because they reduce LDL levels in diabetic patients through mechanisms that may or may not be affected by concurrent statin treatment. The remaining non-statin drugs were chosen because they are commonly used drugs that potentiate the effect of statins. They were selected by reviewing the official on-line VA pharmaceutical reference (Micromedex®) for major interactions mediated by impaired statin metabolism. […] The daily dose of the non-statin drug was calculated by the method described in Section B.
H. Assembling the predictor file—The patient identifier was used to link the new statin prescription type and dose, the preceding LDL above goal, and the type and dose of the previous statin (if any) with the patient's most recent HbA1c, most recent BMI, and the daily doses of 9 drugs with major statin interactions that were active at the time the new prescription was released.
The dependent variable was attainment of goal (LDL <100 mg/dl). […] Step selections were based upon the maximal likelihood method with α<0.15 to enter and ≧0.15 to remove.

The test system of assay [3] is LDL. The following applies: cited from earlier work.

The source of these data is patent US20110245283A1, “Methods for predicting the response to statins” (priority 2009, published 2011).

Like-named read-outs stand apart in the source and are kept apart here.

Turning to `CCC(C)(C)C(=O)O[C@H]1C[C@@H](C)C=C2C=C[C@H](C)[C@H](CC[C@@H]3C[C@@H](O)CC(=O)O3)[C@H]21` [Simvastatin, simvastatin], the “Proportion of patients achieving goal” value is 14.3% in the assay with LDL [1] (Model 1, simvastatin 10 mg, predicted probability 0-19%); 31.8% with LDL [1] (Model 1, simvastatin 10 mg, predicted probability 20-39%); 57.6% with LDL [1] (Model 1, simvastatin 10 mg, predicted probability 40-59%); 69.7% in the assay on LDL [1] (Model 1, simvastatin 10 mg, predicted probability 60-79%); 100% with LDL [1] (Model 1, simvastatin 10 mg, predicted probability 80-100%); 11.1% in the assay with LDL [1] (Model 1, simvastatin 20 mg, predicted probability 0-19%). Moreover, the “Proportion of patients achieving goal” value is listed as 32.9% with LDL [1] (Model 1, simvastatin 20 mg, predicted probability 20-39%); 66.2% in the assay with LDL [1] (Model 1, simvastatin 20 mg, predicted probability 60-79%); 57.0% with LDL [1] (Model 1, simvastatin 40 mg, Overall); 36.4% in the assay with LDL [1] (Model 1, simvastatin 40 mg, predicted probability 0-19%); 30.4% in the assay with LDL [1] (Model 1, simvastatin 40 mg, predicted probability 20-39%); 54.2% in the assay with LDL [1] (Model 1, simvastatin 40 mg, predicted probability 40-59%). In addition, the “Proportion of patients achieving goal” value is reported as 67.2% in the assay on LDL [1] (Model 1, simvastatin 40 mg, predicted probability 60-79%); 0% with LDL [1] (Model 1, simvastatin 40 mg, predicted probability 80-100%); 61.9% in the assay on LDL [1] (Model 1, simvastatin 80 mg, Overall); 42.7% with LDL [1] (Model 1, simvastatin 80 mg, predicted probability 20-39%); 42.7% with LDL [1] (Model 1, simvastatin 80 mg, predicted probability 40-59%); 68.9% in the assay with LDL [1] (Model 1, simvastatin 80 mg, predicted probability 60-79%). The “Proportion of patients achieving goal” value in the assay on LDL [1] (Model 1, simvastatin 80 mg, predicted probability 80-100%) is 74.3%; in the assay with LDL [1] (Simvastatin 10 mg [A] model, predicted probability 0-19%), 8.3%; in the assay with LDL [1] (Simvastatin 10 mg [A] model, predicted probability 20-39%) it was 29.7%; in the assay on LDL [1] (Simvastatin 10 mg [A] model, predicted probability 40-59%) it was 62.1%; in the assay with LDL [1] (Simvastatin 10 mg [A] model, predicted probability 60-79%), 68.6%; with LDL [1] (Simvastatin 10 mg [A] model, predicted probability 80-100%), 75.0%. The “Proportion of patients achieving goal” value is on record as 52.1% in the assay on LDL [1] (Simvastatin 10 mg [B] model, Overall); 10.0% in the assay with LDL [1] (Simvastatin 10 mg [B] model, predicted probability 0-19%); 26.3% in the assay with LDL [1] (Simvastatin 10 mg [B] model, predicted probability 20-39%); 58.8% with LDL [1] (Simvastatin 10 mg [B] model, predicted probability 40-59%); 70.6% in the assay on LDL [1] (Simvastatin 10 mg [B] model, predicted probability 60-79%); 100% in the assay with LDL [1] (Simvastatin 10 mg [B] model, predicted probability 80-100%). The “Proportion of patients achieving goal” value was 11.8% in the assay on LDL [1] (Simvastatin 10 mg [C] model, predicted probability 0-19%); 31.8% in the assay with LDL [1] (Simvastatin 10 mg [C] model, predicted probability 20-39%); 60.0% in the assay with LDL [1] (Simvastatin 10 mg [C] model, predicted probability 40-59%); 74.2% with LDL [1] (Simvastatin 10 mg [C] model, predicted probability 60-79%); 75.0% with LDL [1] (Simvastatin 10 mg [C] model, predicted probability 80-100%); 10.5% in the assay on LDL [1] (Simvastatin 20 mg [C] model, predicted probability 0-19%). For the same molecule, the “Proportion of patients achieving goal” value with LDL [1] (Simvastatin 20 mg [C] model, predicted probability 20-39%) is 35.1%; in the assay with LDL [1] (Simvastatin 20 mg [C] model, predicted probability 60-79%) it was 65.3%; in the assay on LDL [1] (Simvastatin 40 mg model, Overall), 57.4%; in the assay on LDL [1] (Simvastatin 40 mg model, predicted probability 0-19%) it was 20.0%; in the assay on LDL [1] (Simvastatin 40 mg model, predicted probability 20-39%), 38.6%; in the assay on LDL [1] (Simvastatin 40 mg model, predicted probability 40-59%) it was 54.6%. In addition, the “Proportion of patients achieving goal” value is reported as 67.0% in the assay with LDL [1] (Simvastatin 40 mg model, predicted probability 60-79%); 65.0% with LDL [1] (Simvastatin 40 mg model, predicted probability 80-100%); 61.9% with LDL [1] (Simvastatin 80 mg model, Overall); 41.7% in the assay on LDL [1] (Simvastatin 80 mg model, predicted probability 20-39%); 41.9% with LDL [1] (Simvastatin 80 mg model, predicted probability 40-59%); 72.8% with LDL [1] (Simvastatin 80 mg model, predicted probability 60-79%). Also, in the assay on LDL [1] (Simvastatin 80 mg model, predicted probability 80-100%), the “Proportion of patients achieving goal” value is given as 70.8%. The figures for the “Chance of success (reaching goal) of any dose choice” value with LDL [1] (all choices except 80 mg daily) and in the assay on LDL [1] (all doses) were not above 60% and not above 62%, respectively. The “Reduction of odds of reaching goal” value with LDL [2] (for every 10 mg/day in the previous simvastatin dose, simvastatin 20 model) is 70%. Besides, the OR with LDL [2] (Model 1, Simvastatin 10 mg, per 10 mg/day) worked out at 0.130; in the assay on LDL [2] (Model 1, Simvastatin 20 mg, per 10 mg/day) it was 0.355; with LDL [2] (Model 1, Simvastatin 40 mg, per 10 mg/day), 0.771; with LDL [2] (Model 1, Simvastatin 80 mg, per 10 mg/day) it was 0.900; in the assay with LDL [2] (Simvastatin 10 mg [B] model (includes BMI; n = 136), per dose increment), 0.0593; with LDL [2] (Simvastatin 10 mg [C] model (excludes BMI; n = 219), per dose increment) it was 0.149. Also, the OR in the assay on LDL [2] (Simvastatin 20 mg model (n = 374), per dose increment) worked out at 0.356; with LDL [2] (Simvastatin 40 mg model (n = 698), per dose increment) it was 0.788; in the assay with LDL [2] (Simvastatin 80 mg model (n = 481), per dose increment) it was 0.887.

For `CC(C)c1nc(N(C)S(C)(=O)=O)nc(-c2ccc(F)cc2)c1/C=C/[C@@H](O)C[C@@H](O)CC(=O)O` [Rosuva, rosuvastatin], the “Average LDL reduction” value with LDL [3] (Dose 5 mg) was 43%; in the assay on LDL [3] (Dose 10 mg) it was 50%; in the assay on LDL [3] (Dose 20 mg), 53%; in the assay on LDL [3] (Dose 40 mg) it was 62%.

As for `CC[C@H](C)C(=O)O[C@H]1C[C@H](O)C=C2C=C[C@H](C)[C@H](CC[C@@H](O)C[C@@H](O)CC(=O)O)[C@H]21` [Prava, pravastatin], the “Average LDL reduction” value was 19% in the assay on LDL [3] (Dose 10 mg), 24% in the assay on LDL [3] (Dose 20 mg), 34% with LDL [3] (Dose 40 mg) and 40% with LDL [3] (Dose 80 mg).

Consider `CC(C)n1c(/C=C/C(O)CC(O)CC(=O)O)c(-c2ccc(F)cc2)c2ccccc21` (stereo not shown) [Fluva, fluvastatin], for which the “Average LDL reduction” value is reported as 17% with LDL [3] (Dose 20 mg), 23% in the assay on LDL [3] (Dose 40 mg) and 33% in the assay on LDL [3] (Dose 80 mg).

For the molecule `CC(C)c1c(C(=O)Nc2ccccc2)c(-c2ccccc2)c(-c2ccc(F)cc2)n1CC[C@@H](O)C[C@@H](O)CC(=O)O` [Atorva, atorvastatin], the “Average LDL reduction” value is 36% in the assay on LDL [3] (Dose 10 mg), 46% in the assay with LDL [3] (Dose 20 mg), 51% with LDL [3] (Dose 40 mg) and 54% in the assay with LDL [3] (Dose 80 mg).
